Laboratory results taken from patent US9878041B2, “Cyanoacrylate tissue adhesives” (Adhezion Biomedical, LLC, priority 2007, dated 2018).

Tests used:
Escherichia coli = experiment: Antibacterial activity by agar diffusion method; format: cell-based; parameters: key: c: Inhibition of growth not observed; conditions: 10 mg sample
Description: Antibacterial activity of polymyxin B-loaded PBCA nanoparticles was measured indirectly by the agar diffusion method. 30 ml of nutrient agar was added into each of four culture plates (90 mm diameter, 15 mm high). After solidifying, a cylindrical hole (13 mm in diameter) was made in the center of the plate and the contents were removed. 10 mg of polymyxin B, PBCA nanoparticles, and two polymyxin B-loaded PBCA nanoparticles (Poly BIPBCA-1 and 2) were added into a hole of each plate, respectively and a few drops of molten agar were added to fix the samples. The plate were inoculated with Escherichia coli and incubated at 37° C. for 24 hours and the zone of inhibition was determined (FIGS. 13A-13D).
To evaluate the duration of antibacterial activity of each sample, the content of each hole was removed after 24 hours of incubation and transferred to a hole of a freshly prepared plate, incubated again for 24 hours and the zone of inhibition measured. This procedure was continuously repeated until the inhibition of growth was no longer observed.

[1] = test system: hind limb muscles of adult Sprague-Dawley rats; experiment: In vivo biocompatibility and degradation, macroscopic and IHC, incision closure
Source text: Small surgical incisions (0.2 cm in depth, 1 cm in length) were made in both hind limb muscles of adult Sprague-Dawley rats (n=4). One incision was closed by 1 drop of various cyanoacrylate formulations dispensed through a surgical syringe needle (25 G) and the other was closed by absorbable suture (VICRYL, Ethicon) with and without injection of equivalent volumes of PEG included in cyanoacrylate formulations as controls. In order to ensure proper identification of the injury sites, a single non-absorb-able suture was placed adjacent to each repaired incision site.
At 7 days, 4 weeks, and 12 weeks post-surgery, tissue explants containing the repaired incision sites and surrounding muscle tissue were retrieved. The explants were photographed to document the macroscopic tissue response to the various cyanoacrylate formulations and suture controls (FIGS. 3A-3H (7 days), 4A-4H (4 weeks), and 5A-5H (12 weeks)). Identification of specific cells types associated with wound healing and inflammation was performed by histological sectioning and immunohistochemical (IHC) staining. Tissue explants were embedded in Optimal cutting temperature (OCT) compound and sectioned perpendicular to the surface of the repaired muscle tissue. Sections ([…] thick) were transferred to glass microscope slides, fixed with methanol, permeabilized with 0.025% Triton in PBS solution, and stained with primary antibodies directed against vimentin (fibroblasts) and rat macrophages, and Alexa-594 conjugated secondary antibodies. DAPI mounting media was used to counterstain all cellular nuclei. Samples were imaged by fluorescence microscopy (FIGS. 6A-6P, 7A-7P, 8A-8P). Specific cell types are identified in red, sutures and various cyanoacrylate adhesives are shown in green, and cellular nuclei are shown in blue. […]

[2] = test system: Human dermal fibroblast (HDF) cells; experiment: In vitro cytotoxicity of adhesive-conditioned media (MTT assay); format: cell-based; conditions: ACM collected at 2 days; HDF cultured 2 days; FIG. 9
Description: 2 μl of various CA formulations were applied on thin collagen films in 12 well plates and allowed to polymerize completely overnight at room temperature. One ml of […] (DMEM) including 10% Serum and 1% Penicillin/Streptomycin was added into each well and incubated at 37° C. in a humidified CO2 incubator to simulate adhesive degradation. Media samples were collected at 2, 7, and 14 days and these adhesive-conditioned media (ACM) were stored at −20° C. until use. Human dermal fibroblast (HDF) cells were seeded in new 12-well culture plates at a density of 8×10^4 cells/well and cultured for 24 hours to allow cell attachment. The media was replaced with the stored ACM and cultured for 2 days at 37° C. to evaluate the in vitro cytotoxicity of the various CA derivatives. Cell cytotoxicity by the degraded CA adhesives in ACM was evaluated by MTT assay. The principle of this assay is the addition of a dye which is degraded by enzymes present in living cells, resulting in the formation of a colored product. The product concentration, which is generally directly proportional to the number of viable cells, is assayed by spectrophotometry.

Human dermal fibroblasts = experiment: Cell adhesion to polymerized cyanoacrylates (live/dead staining); format: cell-based; conditions: 48 hours culture; FIG. 10
Description: 2 μl aliquots of various cyanoacrylate formulations with and without PEG were applied to thin collagen films in 24 well plates and allowed to cure overnight at room temperature. Human dermal fibroblasts were seeded on the collagen film/polymerized adhesive surfaces at 8×10^4 cells/well and cultured for 48 hours. The cells were stained with fluorescein diacetate and propidium iodide to visualize live (green) and dead (red) cells respectively. FIGS. 10A (OCA+MCA), 10B (OCA+MCA/PEG), 10E (MCA), and 10F (MCA/PEG) are phase contrast images (black and white) showing the interface between the cyanoacrylate adhesives and the surrounding collagen films and corresponding fluorescent images FIGS. 10C (OCA+MCA), 10D (OCA+MCA/PEG), 10G (MCA), and 10H (MCA/PEG) showing the location of adherent cells.

[3] = In vitro accelerated degradation study of cured adhesive films; format: physicochemical; conditions: thin films in 0.05N NaOH, 37° C., 3, 7, 14 and 21 days; FIG. 1
Description: In vitro accelerated degradation studies have been performed to evaluate the degradation rate of various cyanoacrylate adhesives formulated with PEG and without PEG. 20 μl of cyanoacrylate (CA) derivatives and CA derivatives/PEG (MW=600) formulations were spread as a thin layer on the glass microscope slides and allowed to cure overnight at room temperature. […] The films were collected at 3, 7, 14, and 21 days and washed with distilled water two times. The washed films were freeze-dried and weighed (W1) (n=3). […] 2. Tissue Bond Strength Study

[4] = 4 weeks post-surgery, one value per rat
[5] = 7 days post-surgery, one value per rat
[6] = 7 days post-surgery, one value per rat (Rat No. 1-4), star grades not defined
[7] = Table IV, 4 weeks post-surgery (12 weeks), one value per rat

Row | Compound | Inhibition zone: Diameter (mm) (Escherichia coli; day 1, includes original 13 mm sample size) | Inhibition zone: Diameter (mm) (Escherichia coli; day 2 (sample moved to fresh plate every 24 hours), includes 13 mm sample size) | Inhibition zone: Diameter (mm) (Escherichia coli; day 3, includes 13 mm sample size) | Inhibition zone: Diameter (mm) (Escherichia coli; day 4, includes 13 mm sample size) | Inhibition zone: Diameter (mm) (Escherichia coli; day 5, includes 13 mm sample size) | Inhibition zone: Diameter (mm) (Escherichia coli; day 6) | Vessel formation [1, 4] | macroscopic inflammation and swelling of tissue explants ([1]; 7 days post-surgery) | Vessel formation [1, 5] | Degree of inflammation [1, 6] | Degree of inflammation [1, 7] | Vessel formation [1, 7] | cytotoxicity of adhesive-conditioned media (% cell viability) [2] | Degree of inflammation [1, 4] | No. of macrophages ([1]; Table IV, 4 weeks post-surgery (12 weeks), one value per rat, IHC) | fibroblast adhesion to polymerized adhesive surface (Human dermal fibroblasts) | % degradation in vitro [3]
1 | Polymyxin B | 36 | 38.3 | 28 | 25.1 | 22 | c |  |  |  |  |  |  |  |  |  |  | 
2 | C=C(C#N)C(=O)OCCCCCCCC [OCA, octylcyanoacrylate] |  |  |  |  |  |  | no | mild inflammation and swelling | no | no | no | no | not cytotoxic except for the ACM from OCA |  |  |  | 
3 | methoxyisopropylcyanoacrylate [MCA] |  |  |  |  |  |  | no |  | no | no | no | no |  | no | 0 | readily adhered in large numbers | significantly increased degradation
